Measurements as given in US20230331734A1, “NOVEL SPIROPYRROLIDINE DERIVED ANTIVIRAL AGENTS” (ENANTA PHARMACEUTICALS, INC., priority 2022, published 2023).

Assays:
SARS-CoV-2 3CL-protease = SARS-CoV-2 3CL-protease (Severe acute respiratory syndrome coronavirus 2 (2019-nCoV) (SARS-CoV-2), UniProt P0DTD1); assay: SARS-CoV-2 3C-like (3CL) protease fluorescence assay (FRET); format: biochemical; conditions: recombinant SARS-CoV-2 3CL-protease 10 nM, 30 min preincubation, substrate 40 μM, duplicate
[1] = system: 229E human coronavirus (hCoV); assay: microbe, parasite or virus in culture; format: cell-based; conditions: unidentified human coronavirus, MRC5, 144 h; MRC-5 cells, MOI 0.05, 6 days at 34° C., ATPlite, duplicate
norovirus = conditions: phase II randomized double-blind trial, patients; cited from earlier work

Compound | IC50 (SARS-CoV-2 3CL-protease) | EC50 [1] | reduction of gastroenteritis symptoms (norovirus)
CC(C)[C@H](NC(=O)C(F)(F)F)C(=O)CC(Cc1ccc(F)cc1)C(=O)N1C[C@]2(C[C@H]1C#N)C(=O)Nc1ccccc12 (some centres unmarked) [Example 2] | 100 to 1000 nM | > 1000 nM | 
CC(C)[C@H](NC(=O)OC(C)(C)C)C(=O)C[C@@H](Cc1ccc(F)cc1)C(=O)N1C[C@]2(C[C@H]1C#N)C(=O)Nc1ccccc12 [Example 26] | < 100 nM |  | 
CCOC(=O)/C=C/[C@@H]1C[C@@]2(CN1C(=O)[C@@H](CC(=O)[C@@H](NC(=O)OC(C)(C)C)C(C)C)Cc1ccc(F)cc1)C(=O)Nc1ccccc12 [Example 25] | > 1000 nM |  | 
CC(C)[C@H](NC(=O)OCc1ccccc1)C(=O)CC(Cc1ccc(F)cc1)C(=O)N1C[C@]2(C[C@H]1C#N)C(=O)Nc1ccccc12 (some centres unmarked) [Example 1] | 100 to 1000 nM | > 1000 nM | 
CCOC(=O)/C=C/[C@@H]1C[C@@]2(CN1C(=O)[C@@H](CC(=O)[C@@H](NC(=O)c1cc(C)on1)C(C)C)Cc1ccc(F)cc1)C(=O)Nc1ccccc12 [Example 6] | > 1000 nM |  | 
CC(=O)Oc1ccccc1C(=O)Nc1ncc([N+](=O)[O-])s1 [NTZ, nitazoxanide] |  |  | 24 h
Cc1cc(C(=O)N[C@H](C(=O)C[C@@H](Cc2ccc(F)cc2)C(=O)N2C[C@]3(C[C@H]2C#N)C(=O)Nc2ccccc23)C(C)C)no1 [Example 5] | < 100 nM |  | 
CC(C)CC(CC(=O)[C@@H](NC(=O)OCc1ccccc1)C(C)C)C(=O)N1C[C@]2(C[C@H]1C#N)C(=O)Nc1ccccc12 (some centres unmarked) [Example 3] | > 1000 nM | > 1000 nM | 
